Assay results as given in ChEMBL document CHEMBL3407472, “Multi-parameter optimization of aza-follow-ups to BI 207524, a thumb pocket 1 HCV NS5B polymerase inhibitor. Part 2: Impact of lipophilicity on promiscuity and in vivo toxicity” (Bioorg Med Chem Lett, 2015).
pEC50: −log10 of the molar value. Blank lines part the entries; values can stand above or below the molecule they belong to.

Legend:
[1] = test system: Hepatitis C virus; test: Antiviral activity against Hepatitis C virus genotype 1b infected in human Huh cells assessed as inhibition of viral replication by RT-PCR-based replicon assay; assay type: functional, cell-based, Hepacivirus hominis
[2] = test system: Hepatitis C virus; test: Antiviral activity against Hepatitis C virus genotype 1a infected in human Huh cells assessed as inhibition of viral replication by RT-PCR-based replicon assay; assay type: functional, cell-based, Hepacivirus hominis; settings: subtype 1a
[3] = Lipophilicity, log D of the compound at pH 7.4; assay type: physicochemical; settings: buffer

Structure (SMILES): CCOc1nc(NC(=O)C(C)(C)NC(=O)c2ccc3c(C4CCCC4)c(-c4ncc(Br)cn4)n(C)c3c2)cnc1/C=C/C(=O)O
pEC50 [1]: 7.85 | pEC50 [2]: 7.17 | logD [3]: 3.4

Structure (SMILES): COc1nc(NC(=O)C2(NC(=O)c3ccc4c(C5CCCC5)c(-c5cncnc5)n(C)c4c3)CCC2)ccc1/C=C/C(=O)O
pEC50 [1]: 7.30

Structure (SMILES): COc1nc(NC(=O)C(C)(C)NC(=O)c2ccc3c(C4CCCC4)c(-c4ncc(Br)cn4)n(C)c3c2)ccc1/C=C/C(=O)O
pEC50 [1]: 8.15 | logD [3]: 3.2

Structure (SMILES): CCOc1nc(NC(=O)C2(NC(=O)c3ccc4c(C5CCCC5)c(-c5cncnc5)n(C)c4c3)CCCC2)ccc1/C=C/C(=O)O
pEC50 [1]: 8.30 | logD [3]: 3.6

Structure (SMILES): COc1nc(NC(=O)C(C)(C)NC(=O)c2ccc3c(C4CCCC4)c(-c4cncnc4)n(C)c3c2)ccc1/C=C/C(=O)O
pEC50 [1]: 7.64 | pEC50 [2]: 7.14 | logD [3]: 2.2

Structure (SMILES): COc1nc(NC(=O)C(C)(C)NC(=O)c2ccc3c(C4CCCC4)c(-c4ccc(F)cn4)n(C)c3c2)cnc1/C=C/C(=O)O
pEC50 [1]: 7.59

Structure (SMILES): CCOc1nc(NC(=O)C2(NC(=O)c3ccc4c(C5CCCC5)c(-c5ncc(Br)cn5)n(C)c4c3)CCCC2)ccc1/C=C/C(=O)O
pEC50 [1]: 8.30 | logD [3]: > 6.6

Structure (SMILES): CCOc1nc(NC(=O)C(C)(C)NC(=O)c2ccc3c(C4CCCC4)c(-c4cnccn4)n(C)c3c2)cnc1/C=C/C(=O)O
pEC50 [1]: 7.44 | logD [3]: 2.4

Structure (SMILES): CCOc1nc(NC(=O)C(C)(C)NC(=O)c2ccc3c(C4CCCC4)c(-c4ccccn4)n(C)c3c2)cnc1/C=C/C(=O)O
pEC50 [1]: 7.36 | logD [3]: 2.2

Structure (SMILES): CCOc1nc(NC(=O)C2(NC(=O)c3ccc4c(c3)c(C)c(-c3ccc(F)cn3)n4C3CCCCC3)CCC2)cnc1/C=C/C(=O)O
pEC50 [1]: 7.92 | pEC50 [2]: 7.20 | logD [3]: 3.1

Structure (SMILES): CCOc1nc(NC(=O)C2(NC(=O)c3ccc4c(c3)c(C)c(-c3ccc(F)cn3)n4C3CCCCC3)CCCC2)ccc1/C=C/C(=O)O
pEC50 [1]: 8.30 | logD [3]: > 6.2

Structure (SMILES): CCOc1nc(NC(=O)C(C)(C)NC(=O)c2ccc3c(C4CCCC4)c(-c4ccc(F)cn4)n(C)c3c2)cnc1/C=C/C(=O)O
pEC50 [1]: 7.74

Structure (SMILES): CCOc1nc(NC(=O)C(C)(C)NC(=O)c2ccc3c(C4CCCC4)c(-c4ccccn4)n(C)c3c2)ccc1/C=C/C(=O)O
pEC50 [1]: 8.70 | logD [3]: 3.5

Further lines, results first:

pEC50 [1]: 8.22 | pEC50 [2]: 7.57 | logD [3]: 4.3
Structure (SMILES): CCOc1nc(NC(=O)C2(NC(=O)c3ccc4c(C5CCCC5)c(-c5ncc(Cl)cn5)n(C)c4c3)CCCC2)cnc1/C=C/C(=O)O

pEC50 [1]: 8.30 | logD [3]: 4.1
Structure (SMILES): CCOc1nc(NC(=O)C2(NC(=O)c3ccc4c(C5CCCC5)c(-c5cnccn5)n(C)c4c3)CCCC2)ccc1/C=C/C(=O)O

pEC50 [1]: 7.05
Structure (SMILES): CCOc1nc(NC(=O)C2(NC(=O)c3ccc4c(C5CCCC5)c(-c5cncnc5)n(C)c4c3)CCC2)cnc1/C=C/C(=O)O

pEC50 [1]: 7.54
Structure (SMILES): COc1nc(NC(=O)C2(NC(=O)c3ccc4c(C5CCCC5)c(-c5ncc(Cl)cn5)n(C)c4c3)CCCC2)cnc1/C=C/C(=O)O

pEC50 [1]: 8.05 | pEC50 [2]: 7.21 | logD [3]: 3.7
Structure (SMILES): COc1nc(NC(=O)C2(NC(=O)c3ccc4c(C5CCCC5)c(-c5ncc(Cl)cn5)n(C)c4c3)CCC2)ccc1/C=C/C(=O)O

pEC50 [1]: 8.40 | logD [3]: > 5.3
Structure (SMILES): CCOc1nc(NC(=O)C2(NC(=O)c3ccc4c(C5CCCC5)c(-c5ccc(F)cn5)n(C)c4c3)CCCC2)ccc1/C=C/C(=O)O

pEC50 [1]: 7.40
Structure (SMILES): COc1nc(NC(=O)C2(NC(=O)c3ccc4c(C5CCCC5)c(-c5ccc(Cl)cn5)n(C)c4c3)CCCC2)cnc1/C=C/C(=O)O

pEC50 [1]: 6.94
Structure (SMILES): COc1nc(NC(=O)C2(NC(=O)c3ccc4c(C5CCCC5)c(-c5ncc(Br)cn5)n(C)c4c3)CCC2)cnc1/C=C/C(=O)O

pEC50 [1]: 7.37
Structure (SMILES): COc1nc(NC(=O)C2(NC(=O)c3ccc4c(C5CCCC5)c(-c5ccccn5)n(C)c4c3)CCC2)cnc1/C=C/C(=O)O

pEC50 [1]: 7.92 | pEC50 [2]: 7.17 | logD [3]: 4
Structure (SMILES): COc1nc(NC(=O)C2(NC(=O)c3ccc4c(C5CCCC5)c(-c5ccc(F)cn5)n(C)c4c3)CCC2)ccc1/C=C/C(=O)O

pEC50 [1]: 7.43
Structure (SMILES): COc1nc(NC(=O)C2(NC(=O)c3ccc4c(C5CCCC5)c(-c5ccc(F)cn5)n(C)c4c3)CCC2)cnc1/C=C/C(=O)O

pEC50 [1]: 7.52
Structure (SMILES): COc1nc(NC(=O)C2(NC(=O)c3ccc4c(C5CCCC5)c(-c5ccc(F)cn5)n(C)c4c3)CCCC2)cnc1/C=C/C(=O)O

pEC50 [1]: 7.42
Structure (SMILES): COc1nc(NC(=O)C2(NC(=O)c3ccc4c(C5CCCC5)c(-c5ncc(Br)cn5)n(C)c4c3)CCCC2)cnc1/C=C/C(=O)O

pEC50 [1]: 6.24
Structure (SMILES): COc1nc(NC(=O)C2(NC(=O)c3ccc4c(C5CCCC5)c(-c5cncnc5)n(C)c4c3)CCCC2)cnc1/C=C/C(=O)O

pEC50 [1]: 7.80 | logD [3]: 2.6
Structure (SMILES): CCOc1nc(NC(=O)C2(NC(=O)c3ccc4c(C5CCCC5)c(-c5ccccn5)n(C)c4c3)CCCC2)cnc1/C=C/C(=O)O

pEC50 [1]: 6.41
Structure (SMILES): COc1nc(NC(=O)C2(NC(=O)c3ccc4c(C5CCCC5)c(-c5cnccn5)n(C)c4c3)CCCC2)cnc1/C=C/C(=O)O

pEC50 [1]: 7.36
Structure (SMILES): COc1nc(NC(=O)C(C)(C)NC(=O)c2ccc3c(C4CCCC4)c(-c4ccc(Cl)cn4)n(C)c3c2)cnc1/C=C/C(=O)O

pEC50 [1]: 8.40 | logD [3]: > 5.5
Structure (SMILES): CCOc1nc(NC(=O)C2(NC(=O)c3ccc4c(C5CCCC5)c(-c5ccc(Cl)cn5)n(C)c4c3)CCCC2)ccc1/C=C/C(=O)O
